Assay results as given in patent publication US10787640B2, “Producing mesodermal cell types and methods of using the same” (The Board of Trustees of the Leland Stanford Junior …, priority 2015, dated 2020).

What was measured:
Format in all cases: cell-based, human
[1] = test system: hESC-derived cardiac mesoderm; assay: Cardiac mesoderm differentiation into cardiovascular fates, qPCR; details: BMP4 30 ng/mL+XAV939 1 μM with FGF2 or FGF receptor antagonists at 100 nM, 48 hours
Procedure: Day 2 lateral mesoderm was differentiated into day 4 cardiac mesoderm by treating them with 1 μM A8301+30 ng/mL BMP4+1 μM C59+20 ng/mL FGF2 for 48 hrs, or alternatively, with 1 μM A8301+30 ng/mL BMP4+20 ng/mL FGF2 for 24 hrs followed by 25 ng/mL Activin+30 ng/mL BMP4+1 μM C59 for the next 24 hrs (schema in FIG. 5E; positive effect of mid-stage Activin shown in FIG. 12K). Subsequently, day 4 cardiac mesoderm was briefly washed (DMEM/F12) and treated with 30 ng/mL BMP4+1 μM XAV939+200 μg/mL 2-phospho-ascorbic acid (Sigma) for 48-96 hrs to yield day 6-8 cardiomyocyte-containing populations. Spontaneously contracting cardiomyocyte foci were evident from day 8 onwards.
C) To reveal the possible identity of non-cardiac mesoderm lineages that were contaminating cardiac mesoderm-containing cultures, NKX2.5-GFP hESCs were differentiated towards mid primitive streak (day 1) and were differentiated towards a heterogeneous population containing cardiac mesoderm (day 3) by treatment with SB-505124+BMP4+C59 (without FGF2) on days 2-3 of differentiation. FACS was performed on day 3 to purify either NKX2.5-GFP^+ or NKX2.5-GFP^− cells (top subpanels) which were sorted for qPCR (bottom subpanels). Gene expression was normalized to expression of a gene in the NKX2.5-GFP^+ fraction (dotted line). D) Timecourse of gene expression in hESCs differentiating towards mid primitive streak and lateral mesoderm, with treatment by SB-505124+BMP4+C59 on days 2-3 of differentiation. […] G) To assess whether a stabilized vitamin C analog (ascorbic acid-2-phosphate) (AA2P) enhanced cardiac mesoderm differentiation into cardiomyocytes, day 4 hESC-derived cardiac mesoderm was exposed to BMP4 (30 ng/mL)+XAV939 (1 μM) for 48 hours in the presence or absence of 200 μg/mL AA2P and qPCR was conducted of day 6 populations; qPCR data were normalized such that expression values in the highest-expressing sample was normalized=1.0. […] J) In the mouse embryo, endocardium (progenitors to heart-affiliated endothelium) are marked by transient coexpression of pan-heart marker Nkx2.5 together with endothelial markers (Ferdous et al., 2009; Stanley et al., 2002).

[2] = test system: day 5 hematopoietic intermediates; assay: Day 5-7 continued differentiation of hematopoietic intermediates, factor withholding; details: for GFI1B expression: individually withholding the factor from the 8 factors, 48 hours
Procedure: SOX17^mCherry/+ H9 hESCs (referred to as SOX17-mCherry hESCs throughout this study) were routinely propagated in mTeSR1 (StemCell Technologies)+1% penicillin/streptomycin. They were passaged ˜1:12-1:25 as fine clumps using Accutase (Gibco) onto plates precoated with a Geltrex substratum (Gibco) in mTeSR1 medium supplemented with thiazovivin ([…]; a ROCK inhibitor). After overnight plating, hESCs were washed (DMEM/F12) and differentiated towards posterior PS using BMP4 (15-40 ng/mL, R&D Systems), CHIR99021 ([…]), FGF2 (20 ng/mL, Invitrogen) and PIK90 (100 nM, Calbiochem) for 24 hours, with the optional inclusion of Activin (30 ng/mL, R&D Systems) to induce mid PS. Day 1 mid or posterior PS was subsequently washed (DMEM/F12) and further differentiated using BMP4 (40 ng/mL), GDC-0941 (0.25-2.5 μM, Cellagen Technology), Forskolin (10 μM, Tocris), SB-505124 ([…]), VEGF (100 ng/mL, R&D Systems), XAV939 (1 μM, Tocris) and ascorbic acid-2-phosphate (200 μg/mL, Sigma) for 24 hours. Day 2 cultures were further directed into the definitive hematopoietic lineage/hemogenic precursors by Activin A (15 ng/mL), GDC-0941 (0.25-2.5 μM), VEGF (100 ng/mL), XAV939 (1 μM) and ascorbic acid-2-phosphate (200 μg/mL) for 24 hours. Day 3 definitive hematopoietic progenitors were subsequently differentiated into early Runx1^lowGfi1^low hemogenic intermediates through day 4-5 treatment with BMP4 (50 ng/mL), TTNPB (500 nM), VEGF (100 ng/mL) and XAV939 (1 μM) for 48 hours, supplemented with SB-505124 (2 μM) on day 5. Day 5 populations were then dissociated into single cells, counted and reaggregated in individual wells of a low-adhesion V-bottom or U-bottom 96-well plate (e.g., Thermo Fisher, catalog no. 249952) with ˜15,000-20,000 cells seeded per well. Aggregates were cultured for 48 additional hours until day 7 in BMP4 (50 ng/mL), TTNPB (500 nM), VEGF (100 ng/mL), XAV939 (1 μM), SB-505124 (2 μM), SCF (25-50 ng/mL, R&D Systems), IL6 (10 ng/mL, R&D Systems) and IL6RA (250-1000 ng/mL, R&D Systems). All differentiation was conducted in serum-free CDM2 fully-defined basal media.

[3] = test system: day 3 early somite progenitors; assay: Patterning of early somite progenitors into sclerotome or dermomyotome
Procedure: Day 2 paraxial mesoderm was briefly washed (DMEM/F12) and further differentiated into day 3 early somite/somitomere precursors for 24 hours (1 μM A-83-01+250 nM LDN-193189+1 μM C59+500 nM PD0325901). Subsequently, day 3 early somites were dorsoventrally patterned into either ventral somites/sclerotome (5 nM 21K+1 μM C59) or dorsal somites/dermomyotome (3 μM CHIR99021+150 nM Vismodegib). Sclerotome induction was conducted for 48-72 hours (leading to day 5-6 ventral somite progenitors). […] Media was changed 24 hours for all steps. The Hedgehog agonist 21K, which has been previously described in, e.g., Brunton et al., 2009 the disclosure of which is incorporated herein by reference in its entirety, was commercially synthesized.
Day 3 early somites were briefly washed (DMEM/F12), treated with BMP4+CHIR99021+Vismodegib for 24 hours, washed again (DMEM/F12) and subsequently treated with CHIR99021 (3 μM)+21K (5 nM) for 24 hours. This day 5 dermomyotome was further empirically differentiated towards skeletal muscle-like progeny (using medium containing 2% horse serum, which has been previously described in, e.g., Xu et al. 2013, the disclosure of which is incorporated herein by reference in its entirety) for 12 days, yielding day 17 skeletal muscle-containing populations.
FIG. 11: A) To determine the length of time required for sclerotome differentiation, a qPCR timecourse was performed, encompassing undifferentiated hESCs (D0), day 2 hESC-derived paraxial mesoderm (D2 PXM), day 3 hESC-derived early somite progenitors, and hESC-derived day 3 early somite progenitors that were exposed to sclerotome inductive conditions (5 nM 21K+1 μM C59) for 24 or 48 hours. B) Description of EF1α-BCL2-T2A-GFP lentiviral construct (otherwise known as “C306”; top) and FACS plot of a stably-transduced polyclonal H9 hESC line with near-uniform expression of the BCL2-T2A-GFP transgene (green contour) by comparison to uncolored wild-type hESCs (bottom) (see above methods for details of derivation of the H9 BCL2-T2A-GFP hESC line). C) Higher-magnification picture of BCL2-T2A-GFP hESC-derived sclerotome ectopic bone grafts (originally described above in FIG. 4, panel E), showing that despite the near-ubiquitous expression of GFP throughout the ectopic bone graft (indicating its human provenance), the blood vessels are clearly GFP-negative and therefore presumably derived from the mouse host; scale bar=1 mm. […] L) Description of EF1a-BCL2-T2A-GFP lentiviral construct (otherwise known as “C306”; top) and FACS plot of a stably-transduced polyclonal H9 hESC line with near-uniform expression of the BCL2-T2A-GFP transgene (green contour) by comparison to uncolored wild-type hESCs (bottom) (see the methods described herein for details of derivation of the H9 BCL2-T2A-GFP hESC line). M) Description of UBC-Luciferase-T2A-tdTomato lentiviral construct (top); bioluminescent assay of cultured H9 UBC-Luciferase-T2A-tdTomato hESCs validates that these cells are luciferase-expressing in vitro (bottom).

Molecule | cardiovascular fate promoted [1] | GFI1B expression [2] | also measured
AZD4547 | promoted (pro)epicardium |  | 
CCN(CC)CCCCNc1ncc2cc(-c3cc(OC)cc(OC)c3)c(NC(=O)NC(C)(C)C)nc2n1 [PD173074, N-[2-[[4-(Diethylamino)butyl]amino]-6-(3,5-dimethoxyphenyl)pyrido[2,3-d]pyrimidin-7-yl]-N′-(1,1-dimethylethyl)urea] | promoted (pro)epicardium |  | 
IL6: IL6 ligand |  | strongly diminished | 
CCN1CCN(c2ccc(Nc3cc(N(C)C(=O)Nc4c(Cl)c(OC)cc(OC)c4Cl)ncn3)cc2)CC1 [BGJ398] | promoted (pro)epicardium |  | 
SCF: SCF protein signaling through the KIT receptor |  | strongly diminished | 
CN[C@H]1CC[C@H](N(Cc2ccc(OC)c(-c3ccncc3)c2)C(=O)c2sc3c(F)ccc(F)c3c2Cl)CC1 [21K, 3-chloro-4,7-difluoro-N-(4-methoxy-3-(pyridin-4-yl)benzyl)-N-((1r,4r)-4-(methylamino)cyclohexyl)benzo[b]thiophene-2-carboxamide] |  |  | sclerotome fate induction ([3]; 21K with C59, 2-3 days): efficiently induced the sclerotome fate; EN1 induction ([3]; later stage CHIR99021+21K 5 nM, 24-48 hours): important to induce EN1
CS(=O)(=O)c1ccc(C(=O)Nc2ccc(Cl)c(-c3ccccn3)c2)c(Cl)c1 [Vismodegib] |  |  | dorsal somite marker PAX3 and sclerotome fate ([3]; CHIR together with Vismodegib): sustained dorsal somite marker PAX3 while inhibiting the sclerotome fate
VEGF |  | did not markedly impair GFI1B expression | vein marker NR2F2 expression ([2]; withholding the factor): increased expression of the vein marker NR2F2
FGF2: FGF agonist, FGF family ligand | promoted endocardium |  | 
IL6RA: soluble IL6 receptor ectodomain (protein) LAPRRCPAQEVARGVLTSLPGDSVTLTCPGVEPEDNATVHWVLRKPAAGSHPSRWAGMGRRLLLRSVQLHDSGNYSCYRAGRPAGTVHLLVDVPPEEPQLSCFRKSPLSNVVCEWGPRSTPSLTTKAVLLVRKFQNSPAEDFQEPCQYSQESQKFSCQLAVPEGDSSFYIVSMCVASSVGSKFSKTQTFQGCGILQPDPPANITVTAVARNPRWLSVTWQDPHSWNSSFYRLRFELRYRAERSKTFTTWMVKDLQHHCVIHDAWSGLRHVVQLRAQEEFGQGEWSEWSPEAMGTPWTESRSPPAENEVSTPMQALTTNKDDDNILFRDSANATSLPVQDSSSVPLP |  | strongly diminished | 
